In ChEMBL document CHEMBL1201862, “PubChem BioAssay data set” (2004):
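Protocol summary: plate cells (96-well), add compound at 5 concentrations, incubate 48 h, interpolate endpoints linearly. GI50 = concentration required for 50% inhibition of growth.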 The source made the active and inactive calls. Cut-off read from the data, not from the text of the source: active = GI50 up to about 1.1 µM and inactive = higher.

Tests used:
Assay in all cases: growth of human tumour cells (NCI), 48 h
786-0 = system: 786-0
BT-549 = system: BT-549
EKVX = system: EKVX
HCT-15 = system: HCT-15
HL-60 = system: HL-60
HOP-92 = system: HOP-92
IGROV-1 = system: IGROV-1
KM12 = system: KM12
MCF7 = system: MCF7
SF-268 = system: SF-268
SF-539 = system: SF-539
SK-MEL-28 = system: SK-MEL-28
SW-620 = system: SW-620
T47D = system: T47D
UO-31 = system: UO-31
CCRF-CEM = system: CCRF-CEM
K562 = system: K562
Malme-3M = system: Malme-3M
UACC-62 = system: UACC-62
SR = system: SR

CCCCCCCCCCCCCCCCCCNC(=S)N/C=C1\C(=O)Nc2ccccc2C1=O
GI50 (786-0): 15.6 µM (inactive)
GI50 (BT-549): 18.9 µM (inactive)
GI50 (EKVX): 13.7 µM (inactive)
GI50 (HCT-15): 15.6 µM
GI50 (HL-60): 4.92 µM (inactive)
GI50 (HOP-92): 15.8 µM (inactive)
GI50 (IGROV-1): 5.83 µM (inactive)
GI50 (KM12): 16.1 µM (inactive)
GI50 (MCF7): 20.2 µM (inactive)
GI50 (SF-268): 13.6 µM (inactive)
GI50 (SF-539): 19.7 µM (inactive)
GI50 (SK-MEL-28): 16.5 µM (inactive)
GI50 (SW-620): 19.5 µM (inactive)
GI50 (T47D): 24.7 µM (inactive)
GI50 (UO-31): 15.5 µM (inactive)

O=C(O)c1cc(NC2=C(Cl)C(=O)c3c(O)ccc(O)c3C2=O)ccc1O
GI50 (786-0): > 10 µM (inactive)
GI50 (BT-549): > 10 µM (inactive)
GI50 (CCRF-CEM): > 10 µM (inactive)
GI50 (EKVX): > 10 µM (inactive)
GI50 (HCT-15): > 10 µM
GI50 (HOP-92): > 10 µM (inactive)
GI50 (IGROV-1): > 10 µM (inactive)
GI50 (K562): > 10 µM (inactive)
GI50 (KM12): > 10 µM (inactive)
GI50 (MCF7): > 10 µM (inactive)
GI50 (Malme-3M): > 10 µM (inactive)
GI50 (SF-268): > 10 µM (inactive)
GI50 (SF-539): > 10 µM (inactive)
GI50 (SK-MEL-28): > 10 µM (inactive)
GI50 (SW-620): > 10 µM (inactive)
GI50 (T47D): > 10 µM (inactive)
GI50 (UACC-62): > 10 µM (inactive)
GI50 (UO-31): > 10 µM (inactive)

COc1cc(C(=O)N(C)N(C)C)cc(OC)c1OC
GI50 (786-0): > 10 µM (inactive)
GI50 (BT-549): > 10 µM (inactive)
GI50 (CCRF-CEM): > 10 µM (inactive)
GI50 (EKVX): > 10 µM (inactive)
GI50 (HCT-15): > 10 µM
GI50 (HL-60): > 10 µM (inactive)
GI50 (HOP-92): > 10 µM (inactive)
GI50 (IGROV-1): > 10 µM (inactive)
GI50 (K562): > 10 µM (inactive)
GI50 (KM12): > 10 µM (inactive)
GI50 (MCF7): > 10 µM (inactive)
GI50 (Malme-3M): > 10 µM (inactive)
GI50 (SF-268): > 10 µM (inactive)
GI50 (SF-539): > 10 µM (inactive)
GI50 (SK-MEL-28): > 10 µM (inactive)
GI50 (SW-620): > 10 µM (inactive)
GI50 (T47D): > 10 µM (inactive)
GI50 (UACC-62): > 10 µM (inactive)
GI50 (UO-31): > 10 µM (inactive)

CC(C)C(NC(=O)C(Cc1ccccc1)NC(=O)[C@H]1CCC[C@H]1NC(=O)C(N)Cc1ccc(O)cc1)C(N)=O (some centres undefined)
GI50 (786-0): > 100 µM (inactive)
GI50 (CCRF-CEM): > 100 µM (inactive)
GI50 (EKVX): > 100 µM (inactive)
GI50 (HCT-15): > 100 µM
GI50 (HL-60): > 100 µM (inactive)
GI50 (HOP-92): > 100 µM (inactive)
GI50 (IGROV-1): > 100 µM (inactive)
GI50 (K562): > 100 µM (inactive)
GI50 (KM12): > 100 µM (inactive)
GI50 (MCF7): > 100 µM (inactive)
GI50 (Malme-3M): > 100 µM (inactive)
GI50 (SF-268): > 100 µM (inactive)
GI50 (SF-539): > 100 µM (inactive)
GI50 (SK-MEL-28): > 100 µM (inactive)
GI50 (SR): > 100 µM (inactive)
GI50 (SW-620): > 100 µM (inactive)
GI50 (T47D): > 100 µM (inactive)
GI50 (UACC-62): > 100 µM (inactive)
GI50 (UO-31): > 100 µM (inactive)

COc1ccc2nc(N/N=C/c3sccc3C)cc(C)c2c1
GI50 (786-0): 14.4 µM (inactive)
GI50 (BT-549): 15.6 µM (inactive)
GI50 (CCRF-CEM): 19.5 µM (inactive)
GI50 (EKVX): 18.2 µM (inactive)
GI50 (HCT-15): 14.1 µM
GI50 (HL-60): 18.3 µM (inactive)
GI50 (HOP-92): 6.07 µM (inactive)
GI50 (IGROV-1): 15.1 µM (inactive)
GI50 (K562): 38 µM (inactive)
GI50 (KM12): 22.5 µM (inactive)
GI50 (MCF7): 22.5 µM (inactive)
GI50 (Malme-3M): 17.5 µM (inactive)
GI50 (SF-268): 16.5 µM (inactive)
GI50 (SK-MEL-28): 18.1 µM (inactive)
GI50 (SW-620): 20.8 µM (inactive)
GI50 (T47D): 42.9 µM (inactive)
GI50 (UACC-62): 13.1 µM (inactive)
GI50 (UO-31): 15.1 µM (inactive)

CC(C)(C)OC(=O)[C@@H]1ON2O[C@H](OC3CCCC3(c3ccccc3)c3ccccc3)C[C@H]3OC(=O)[C@@H]1[C@H]32 (some centres undefined)
GI50 (786-0): 50.1 µM (inactive)
GI50 (BT-549): 66.7 µM (inactive)
GI50 (CCRF-CEM): > 100 µM (inactive)
GI50 (EKVX): 73.5 µM (inactive)
GI50 (HCT-15): 31.8 µM
GI50 (IGROV-1): 38.7 µM (inactive)
GI50 (K562): 36.4 µM (inactive)
GI50 (KM12): 36.1 µM (inactive)
GI50 (MCF7): 70 µM (inactive)
GI50 (SF-268): 34.4 µM (inactive)
GI50 (SF-539): > 100 µM (inactive)
GI50 (SK-MEL-28): 95.1 µM (inactive)
GI50 (SR): > 100 µM (inactive)
GI50 (SW-620): 85.7 µM (inactive)
GI50 (T47D): 54 µM (inactive)
GI50 (UACC-62): 98.9 µM (inactive)
GI50 (UO-31): 71.9 µM (inactive)

ClC1(Cl)C(c2ccccc2)C1c1ccccc1 (centres undefined)
GI50 (786-0): 28.5 µM (inactive)
GI50 (BT-549): 33.4 µM (inactive)
GI50 (EKVX): 18.3 µM (inactive)
GI50 (HCT-15): 21.6 µM
GI50 (K562): 9.68 µM (inactive)
GI50 (KM12): 21.4 µM (inactive)
GI50 (MCF7): 56 µM (inactive)
GI50 (SF-268): 32.4 µM (inactive)
GI50 (SK-MEL-28): 41.7 µM (inactive)
GI50 (SR): 7.64 µM (inactive)
GI50 (SW-620): 22.2 µM (inactive)
GI50 (T47D): 34.6 µM (inactive)
GI50 (UACC-62): 29.5 µM (inactive)
GI50 (UO-31): 26.9 µM (inactive)

c1cn[nH]c1 [PYRAZOLE]
GI50 (786-0): > 10 µM (inactive)
GI50 (CCRF-CEM): > 10 µM (inactive)
GI50 (EKVX): > 10 µM (inactive)
GI50 (HCT-15): > 10 µM
GI50 (HL-60): > 10 µM (inactive)
GI50 (HOP-92): > 10 µM (inactive)
GI50 (IGROV-1): > 10 µM (inactive)
GI50 (K562): > 10 µM (inactive)
GI50 (KM12): > 10 µM (inactive)
GI50 (MCF7): > 10 µM (inactive)
GI50 (Malme-3M): > 10 µM (inactive)
GI50 (SF-268): > 10 µM (inactive)
GI50 (SF-539): > 10 µM (inactive)
GI50 (SK-MEL-28): > 10 µM (inactive)
GI50 (SR): > 10 µM (inactive)
GI50 (SW-620): > 10 µM (inactive)
GI50 (T47D): > 10 µM (inactive)
GI50 (UACC-62): > 10 µM (inactive)
GI50 (UO-31): > 10 µM (inactive)
